Test [1] deals with bone marrow cells induced to differentiate into osteoclasts. The test can be described thus: Osteoclast differentiation of bone marrow cells with RANKL and M-CSF (TRAP+ osteoclasts). It counts as cell-based, mice. The protocol:
(§1) A.) Bone marrow cells from WT and radiation chimeric netrin^−/− bone marrow mice were isolated and induced to differentiate into osteoclasts by incubation with RANKL and M-CSF. […] Cells from 5 different mice repeated in duplicate. […] A2A receptor stimulation reduces Unc5b, but not DCC, expression. Representative of 2 experiments. C. Bone mineral density (BMD) determined by Pixamouse small animal Dexa scanner. WT mice and Netrin1 KO mice are chimeras generated by infusion of either normal or netrin-1 deficient fetal liver into lethally irradiated congenic C57Black/6 mice. BMD was measured 18 weeks after transplant. Shown are the results of determinations on 5 mice in each group. […] Representative of 5 different mice with each treatment. E. Soft tissue from patients stained for semaphorin 4D (original magnification 800×). On the left is soft tissue obtained at the time of hip replacement (Representative of 14). […] On the right is tissue obtained at time of prosthesis revision (representative of 12).
Consistent with this observation it was shown that radiation chimeras with netrin-1^−/− replacement bone marrow have increased bone mineral density, as measured by Dexa scan (FIG. 4). […]

Test [2] has as its system netrin-1. Briefly: Western blot of netrin-1 in supernate of RAW264.7 cells differentiating to osteoclasts. The format is cell-based, murine. As to conditions: CGS21680 1 μM, RANKL and M-CSF. As to the method:
as §1

Test [3] concerns Unc5b. Briefly: Western blot of Unc5b in RAW264.7 cells differentiating to osteoclasts. It counts as cell-based, murine. As to conditions: CGS21680 1 μM. As to the method:
as §1

Test [4] has as its system sema4D-expressing cells. The test can be described thus: Sema4D staining of calvarium in murine model of wear particle-induced osteolysis. As to conditions: wear particle-treated mice; immunostaining. It counts as in vivo. As to the method: A.) Total cell lysates from primary murine bone marrow cells alone (basal) or after osteoclast differentiation in the presence of saline, CGS21680 (1 μM) with/without ZM241385 (1 μM) were subject to Western Blot detection of sema4D. Shown is a representative experiment of 3. B.) RAW264.7 osteoclasts, infected with a lentiviral vector expressing either shRNA for the catalytic subunit of PKA, scrambled shRNA, or primary murine bone marrow cells were cultured in the presence of saline (Black line) or CGS21680 (1 μM, Red Line) with/without ZM241385 (1 μM, Blue Line) for the time periods indicated before harvest of the cells, collection of RNA and real time RTPCR. Results represent the means (±SEM) of 5 separate determinations. C. Calvarium from sham or wear particle-treated wild type (C57B1/6) mice or adenosine A2A receptor knockout mice (C57B1/6 background) were stained for sema4D. D. Soft tissue from patients stained for semaphorin 4D (original magnification 800×). On the left is soft tissue obtained at the time of joint replacement (Representative of 14). On the right is tissue obtained at time of prosthesis revision (representative of 12). […] In this model ultra high molecular weight polyethylene particles (UHMWPE) are injected into an air pouch overlying the calvaria and the area of bone resorption is measured. […]

In test [5] the test system is semaphorin 4D. Briefly: Sema4D expression (Western blot, real time RT-PCR) in osteoclasts from primary murine bone marrow cells and RAW264.7 cells. The format is cell-based. As to conditions: CGS21680 1 μM; protein kinase A-dependent. As to the method:
A.) Total cell lysates from primary murine bone marrow cells alone (basal) or after osteoclast differentiation in the presence of saline, CGS21680 (1 μM) with/without ZM241385 (1 μM) were subject to Western Blot detection of sema4D. Shown is a representative experiment of 3. B.) RAW264.7 osteoclasts, infected with a lentiviral vector expressing either shRNA for the catalytic subunit of PKA, scrambled shRNA, or primary murine bone marrow cells were cultured in the presence of saline (Black line) or CGS21680 (1 μM, Red Line) with/without ZM241385 (1 μM, Blue Line) for the time periods indicated before harvest of the cells, collection of RNA and real time RTPCR. Results represent the means (±SEM) of 5 separate determinations. C. Calvarium from sham or wear particle-treated wild type (C57B1/6) mice or adenosine A2A receptor knockout mice (C57B1/6 background) were stained for sema4D. D. Soft tissue from patients stained for semaphorin 4D (original magnification 800×). On the left is soft tissue obtained at the time of joint replacement (Representative of 14). On the right is tissue obtained at time of prosthesis revision (representative of 12).

Test [6] concerns wear particle-induced osteolysis. Briefly: New bone formation at sites of wear particle-induced osteolysis (Xenolight Rediject Bone Probe 680, IVIS). As to conditions: daily injections of CGS21680 into air pouch over calvarium. The format is in vivo, mice. The protocol:
Mice (C57B1/6) underwent formation of an air pouch over the calvarium and then exposed to saline (sham) or wear particles […] followed by daily injections of 200 μl of saline or CGS21680, as previously described. Animals were injected with Xenolight Rediject Bone Probe 680 (2 nmoles in 150 ul) followed by scanning in the IVIS apparatus. The intensity of staining is indicated by increasing yellow coloration. The fluorescence is detectable without change for 3-4 days and persists for as long as 2 weeks although all of these scans were taken on the day of injection. Shown are representative scans of ⅕ animals per group. The intensity of fluorescence was quantitated in a specific area of interest using software provided with the apparatus and the mean (±SEM) was calculated for 5 animals in each. In these experiments osteolysis will be monitored as porosity of the calvaria, measured by microCT, as has been previously described (Mediero, et al., Sci Transl Med, 2012. 4(135): 135-65). […] In addition, sema4D, netrin-1, GM-CSF, M-CSF, IP-10, MCP-1, IL-1, TNF, IL-6, IL-10, osteoprotegerin, osteocalcin and RANKL in supernates of cultured calvaria will be quantified by luminex assay, as has been previously described (Mediero, et al., Sci Transl Med, 2012. 4(135): 135-65). […]

Test [7] concerns RANK. The test can be described thus: RANK staining of calvarium in murine model of wear particle-induced osteolysis. The format is in vivo, mice. Conditions: wear particles 4 weeks; saline containing CGS21680 1 μM. As to the method: (§2) A. Shown are representative sections (from 10 different mice) of mouse calvarium after formation of an air pouch alone (sham) or after formation of an air pouch and exposure to wear particles for 4 weeks in the presence of saline or saline containing CGS21680 (1 μM), as we have previously described (Mediero, et al., Sci Transl Med, 2012. 4(135): 135-65). Dark brown staining is positive. B. RNA was isolated from normal human osteoblasts (Alizarin Red+/Alkaline Phosphatase+ cells) after differentiation from normal marrow cells in the presence or absence of CGS21680 (1 μM). Real time RT-PCR was carried out for RANKL and normalized to GAPDH. Shown are mean (+/−SD) results of two different samples carried out in duplicate.

In test [8] the test system is RANKL. The test can be described thus: RANKL staining of calvarium in murine model of wear particle-induced osteolysis. It counts as in vivo, mice. Conditions: wear particles 4 weeks; saline containing CGS21680 1 μM. As to the method: as §2
Test [9] relates to osteoprotegerin. Briefly: Osteoprotegerin staining of calvarium in murine model of wear particle-induced osteolysis. It counts as in vivo, mice. Conditions: wear particles 4 weeks; saline containing CGS21680 1 μM. The protocol: as §2
For test [10], the system named is RANKL. Briefly: RANKL real time RT-PCR in normal human osteoblasts differentiated from marrow cells. It counts as cell-based. Conditions: CGS21680 1 μM; normalized to GAPDH. As to the method: as §2
Test [11] deals with NFκB p50/p105. The test can be described thus: NFκB p50/p105 nuclear translocation in RAW264.7 cells with RANKL (Western blot). It counts as cell-based, murine. Conditions: CGS21680 1 μM; 30 min with RANKL; PKA-ERK1/2 mechanism. As to the method:
RAW264.7 cells were infected with lentiviral constructs expressing shRNA for the catalytic subunit of PKA or a scrambled control. Cells were incubated for 30 min in the presence of RANKL alone, plus CGS21680 (1 μM, CGS) or plus CGS and ZM241385 (1 μM, C+Z) before lysis, separation of nuclear and cytosolic fractions and analysis by Western Blot. Shown are representative Western Blots. Results in the bar graphs are expressed as the means of four independent experiments analyzed densitometrically and normalized to actin. Results were analyzed by two way ANOVA and Bonferroni post-hoc testing.

In test [12] the test system is netrin-1. Briefly: Netrin-1 expression in inflammatory infiltrate in wear particle-induced osteolysis. Conditions: wear particle-induced osteolysis in mice. It counts as in vivo. The protocol: as §1
Staining for netrin-1 was carried out in collaboration with Dr. Kathryn Moore's laboratory, an internationally known expert on the role of this protein in macrophage function in atherosclerosis (van Gils, et al., Nat Immunol, 2012, 13(2): 136-43). […]

Entries after “also recorded” stand apart in the source; their conditions may differ.

As to `Nc1nc(NCCc2ccc(O)cc2)nc2nc(-c3ccco3)nn12` [ZM241385], the “reversal of the A2A receptor agonist (CGS21680) reduction of osteoclast differentiation” value in test [1] (WT cells with CGS21680 1 μM, netrin-1 250 ng/ml) is on record as “reversed”.

For `CCNC(=O)[C@H]1O[C@@H](n2cnc3c(N)nc(NCCc4ccc(CCC(=O)O)cc4)nc32)[C@H](O)[C@@H]1O` [CGS21680], in test [1] (CGS21680 1 μM, RANKL and M-CSF, WT bone marrow cells), the “osteoclast differentiation in WT cells” value was “reduces osteoclast differentiation”. For the same molecule, the “netrin-1 in the supernate of RAW264.7 cells” value in test [2] is reported as “reduces netrin-1”. Also, the Unc5b expression result in test [3] is “reduces Unc5b”. Moreover, the “number of sema4D-expressing cells in the calvaria” value in test [4] was “dramatically decreased; also recorded: diminishes recruitment of semaphorin 4D positive cells”. For the same molecule, in [5], the “semaphorin 4D expression by osteoclasts” value is “inhibits”. Moreover, in test [6], the “new bone formation at sites of wear particle-induced osteolysis” value is on record as “restored”. The “RANK expression in calvarium” value in [7] is recorded as “diminishes RANK”. Besides, in [8], the “RANKL expression in calvarium” value is reported as “diminishes RANK, RANKL”. In addition, the “osteoprotegerin expression in calvarium” value in test [9] was “increases osteoprotegerin expression”. For the same molecule, the “RANKL mRNA in differentiating osteoblasts” value in test [10] is recorded as “diminishes RANKL mRNA”. Also, in test [11], the “NFκB p50/p105 nuclear translocation” value is reported as “inhibits”. In addition, the “netrin-1 expression in the inflammatory infiltrate” value in test [12] was “inhibits its expression”.

For the origin of these results see US9381245B2, “Methods for inhibiting osteolysis” (New York University, priority 2012, dated 2016).
